These results are taken from US20250262201A1, “COMPOUNDS AND METHODS USEFUL FOR STABILIZING PHENYLALANINE HYDROXYLASE MUTATIONS” (Agios Pharmaceuticals, Inc., priority 2022, published 2025).

The assay addresses T1, human PAH with the R408W mutation (Homo sapiens, UniProt P00439, R408W).
T1 construct: expressed in transfected cells
T1 sequence (P00439 1-452 R408W): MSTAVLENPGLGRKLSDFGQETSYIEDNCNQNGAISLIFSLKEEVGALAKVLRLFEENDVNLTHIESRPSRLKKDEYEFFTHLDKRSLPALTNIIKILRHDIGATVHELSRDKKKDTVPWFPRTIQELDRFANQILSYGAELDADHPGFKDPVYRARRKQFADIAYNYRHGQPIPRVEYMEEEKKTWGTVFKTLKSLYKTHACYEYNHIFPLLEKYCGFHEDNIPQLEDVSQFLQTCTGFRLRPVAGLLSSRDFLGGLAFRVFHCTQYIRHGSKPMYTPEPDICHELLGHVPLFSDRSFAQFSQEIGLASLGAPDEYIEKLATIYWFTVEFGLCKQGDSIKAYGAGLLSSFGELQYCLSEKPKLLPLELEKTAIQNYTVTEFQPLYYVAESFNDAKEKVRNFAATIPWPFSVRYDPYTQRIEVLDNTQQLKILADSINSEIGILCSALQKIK
Briefly: Cell Based Phenylalanine Flux Assay. Also on record: scale not given here. The following applies: 13C-Tyrosine by LC-MS, average where tested multiple times.

Setting [1] is: A375 cells expressing human R408W PAH, 24 hrs compound incubation, read-out: AC50.
The mark [2] stands for this setting: A375 R408W cells, 24 hrs with compound, then 20 μM sepiapterin and 800 μM 13C9,15N-Phenylalanine for 4 hours, read-out: AC50.
Where [3] appears, read: A375 R408W cells, 24 hrs with compound, then 20 μM sepiapterin and 800 μM 13C9,15N-Phenylalanine for 4 hours.

Read-outs that look alike come from different tables or passages of the source. Where only a bound is given, the exact number is not on record here.

Regarding `O=C(c1nnc(-c2cnn(C(F)F)c2)o1)N1CCc2[nH]cnc2[C@@H]1c1ncc2ccccc2n1` [Example 186, (R)-(5-(1-(difluoromethyl)-1H-pyrazol-4-yl)-1,3,4-oxadiazol-2-yl)(4-(quinazolin-2-yl)-6,7-dihydro-1H-imidazo[4,5-c]pyridin-5(4H)-yl)methanone], the AC50 under setting [1] was greater than 5000 nM.

Take `O=C(c1cnco1)N1CCc2[nH]cnc2[C@H]1c1ncc2ccccc2n1` [Example 149, (S)-oxazol-5-yl(4-(quinazolin-2-yl)-6,7-dihydro-1H-imidazo[4,5-c]pyridin-5(4H)-yl)methanone]: the AC50 under setting [1] was less than 500 nM. For `O=C(c1cnc(C(F)F)s1)N1CCc2[nH]cnc2C1c1cn2ccccc2n1` (stereo not shown), the AC50 under setting [2] was in the range of 1000 to 5000 nM. On to `COCc1ccc2c(C(=O)N3CCc4[nH]cnc4[C@@H]3c3ncc4ccccc4n3)cnn2c1` [Example 154, (R)-(6-(methoxymethyl)pyrazolo[1,5-a]pyridin-3-yl)(4-(quinazolin-2-yl)-6,7-dihydro-1H-imidazo[4,5-c]pyridin-5(4H)-yl)methanone], for which the AC50 under setting [1] was greater than 5000 nM.

Take `O=C(c1cnc(-c2ccccn2)o1)N1CCc2[nH]cnc2[C@H]1c1cc2ccccc2cn1` [Example 308, (R)-(4-(isoquinolin-3-yl)-6,7-dihydro-1H-imidazo[4,5-c]pyridin-5(4H)-yl)(2-(pyridin-2-yl)oxazol-5-yl)methanone]: under setting [1], the AC50 was less than 500 nM. On to `CC(C)(O)c1ncc(C(=O)N2CCc3[nH]cnc3C2c2ncc3ccccc3n2)o1` (stereo not shown), for which the AC50 under setting [2] was greater than 5000 nM. As for `O=C(c1nnc(-c2c(F)cccc2F)o1)N1CCc2[nH]cnc2[C@@H]1c1cc2ccccc2cn1` [Example 335, (S)-(5-(2,6-difluorophenyl)-1,3,4-oxadiazol-2-yl)(4-(isoquinolin-3-yl)-6,7-dihydro-1H-imidazo[4,5-c]pyridin-5(4H)-yl)methanone], the AC50 under setting [1] was in the range of 1000 to 5000 nM. On to `O=C(Cc1cnco1)N1CCc2[nH]cnc2C1c1cn2ccccc2n1` (stereo not shown), for which, under setting [2], the half-maximal activity concentration (AC50) was greater than 5000 nM. Consider `O=C(c1nnc(C2CC(F)(F)C2)o1)N1CCc2[nH]cnc2[C@@H]1c1ncc2ccccc2n1` [Example 152, (R)-(5-(3,3-difluorocyclobutyl)-1,3,4-oxadiazol-2-yl)(4-(quinazolin-2-yl)-6,7-dihydro-1H-imidazo[4,5-c]pyridin-5(4H)-yl)methanone], for which the AC50 under setting [1] was greater than 5000 nM. As to `CC(O)c1nc(Br)c(C(=O)N2CCc3[nH]cnc3[C@@H]2c2ccc3ccccc3n2)o1` (single isomer, unassigned) [Example 131], under setting [1], the AC50 was 1000 to 5000 nM.

For the compound `Cc1ccc2c(C(=O)N3CCc4[nH]cnc4[C@H]3c3cc4ccccc4cn3)cnn2c1` [Example 466, (R)-(4-(isoquinolin-3-yl)-6,7-dihydro-1H-imidazo[4,5-c]pyridin-5(4H)-yl)(6-methylpyrazolo[1,5-a]pyridin-3-yl)methanone], the AC50 under setting [1] is less than 500 nM. With `O=C(c1nnc(-c2cn[nH]c2)o1)N1CCc2[nH]cnc2C1c1ncc2ccccc2n1` (stereo not shown), the half-maximal activity concentration (AC50) under setting [2] fell in the range of 1000 to 5000 nM. `O=C(c1nnc(-c2ncccc2F)o1)N1CCc2[nH]cnc2[C@H]1c1ncc2ccccc2n1` [Example 163, (S)-(5-(3-fluoropyridin-2-yl)-1,3,4-oxadiazol-2-yl)(4-(quinazolin-2-yl)-6,7-dihydro-1H-imidazo[4,5-c]pyridin-5(4H)-yl)methanone]: the AC50 under setting [1] is less than 500 nM. Regarding `O=C(c1ocnc1C(F)(F)F)N1CCc2[nH]cnc2C1c1ncc2ccccc2n1` (stereo not shown), the AC50 entry under setting [3] is recorded as “E, E”. Regarding `O=C(c1nnc(-c2cc[nH]n2)o1)N1CCc2[nH]cnc2[C@@H]1c1ncc2ccccc2n1` [Example 176, (R)-(5-(1H-pyrazol-3-yl)-1,3,4-oxadiazol-2-yl)(4-(quinazolin-2-yl)-6,7-dihydro-1H-imidazo[4,5-c]pyridin-5(4H)-yl)methanone], the AC50 under setting [1] was greater than 5000 nM. With `O=C(c1cnc(-c2ccccn2)s1)N1CCc2[nH]cnc2[C@H]1c1cc2ccccc2cn1` [Example 300, (R)-(4-(isoquinolin-3-yl)-6,7-dihydro-1H-imidazo[4,5-c]pyridin-5(4H)-yl)(2-(pyridin-2-yl)thiazol-5-yl)methanone], the half-maximal activity concentration (AC50) under setting [1] was less than 500 nM.

As for `Cn1cc(-c2ccc3c(C(=O)N4CCc5[nH]cnc5[C@H]4c4cc5ccccc5cn4)cnn3c2)cn1` [Example 456, (R)-(4-(isoquinolin-3-yl)-6,7-dihydro-1H-imidazo[4,5-c]pyridin-5(4H)-yl)(6-(1-methyl-1H-pyrazol-4-yl)pyrazolo[1,5-a]pyridin-3-yl)methanone], under setting [1], the AC50 is less than 500 nM.

`Cn1cc(-c2ncc(C(=O)N3CCc4[nH]cnc4C3c3ncc4ccccc4n3)o2)cn1` (stereo not shown): the AC50 under setting [2] lay within 1000 to 5000 nM. In the case of `COCc1ccc2c(C(=O)N3CCc4[nH]cnc4[C@@H]3c3cc4ccccc4cn3)cnn2c1` [Example 315, (S)-(4-(isoquinolin-3-yl)-6,7-dihydro-1H-imidazo[4,5-c]pyridin-5(4H)-yl)(6-(methoxymethyl)pyrazolo[1,5-a]pyridin-3-yl)methanone], under setting [1], the half-maximal activity concentration (AC50) was greater than 5000 nM.

As to `O=C(c1nnc(-c2ncccn2)o1)N1CCc2[nH]cnc2C1c1ncc2ccccc2n1` (stereo not shown), the AC50 under setting [2] was greater than 5000 nM.

Regarding `c1ccc(-c2nnc(N3CCc4[nH]cnc4[C@H]3c3cc4ccccc4cn3)o2)nc1` [Example 365, (R)-2-(4-(isoquinolin-3-yl)-6,7-dihydro-1H-imidazo[4,5-c]pyridin-5(4H)-yl)-5-(pyridin-2-yl)-1,3,4-oxadiazole], the AC50 under setting [1] is 500 to 1000 nM.

`O=C(c1cnn2cc(N3CCC(O)CC3)ccc12)N1CCc2[nH]cnc2[C@H]1c1cc2ccccc2cn1` [Example 478, (R)-(6-(4-hydroxypiperidin-1-yl)pyrazolo[1,5-a]pyridin-3-yl)(4-(isoquinolin-3-yl)-6,7-dihydro-1H-imidazo[4,5-c]pyridin-5(4H)-yl)methanone]: the half-maximal activity concentration (AC50) under setting [1] fell in the range of 500 to 1000 nM.

Regarding `N#Cc1ncoc1C(=O)N1CCc2[nH]cnc2[C@@H]1c1ncc2ccccc2n1` [Example 148, (R)-5-(4-(quinazolin-2-yl)-4,5,6,7-tetrahydro-1H-imidazo[4,5-c]pyridine-5-carbonyl)oxazole-4-carbonitrile], under setting [1], the AC50 was 1000 to 5000 nM. Consider `FC(F)(F)c1cnc(N2CCc3[nH]cnc3[C@H]2c2cn3ccccc3n2)nc1` [Example 231, (R)-4-(imidazo[1,2-a]pyridin-2-yl)-5-(5-(trifluoromethyl)pyrimidin-2-yl)-4,5,6,7-tetrahydro-1H-imidazo[4,5-c]pyridine], for which, under setting [1], the half-maximal activity concentration (AC50) is less than 500 nM.

For `O=C(c1cnc(-c2ccccn2)o1)N1CCc2[nH]cnc2[C@H]1c1ncc2ccccc2n1` [Example 158, (S)-(2-(pyridin-2-yl)oxazol-5-yl)(4-(quinazolin-2-yl)-6,7-dihydro-1H-imidazo[4,5-c]pyridin-5(4H)-yl)methanone], the concentration at half-maximal activity (AC50) under setting [1] lay within 500 to 1000 nM. As to `O=C(Cc1cncs1)N1CCc2[nH]cnc2C1c1cn2ccccc2n1` (stereo not shown), the half-maximal activity concentration (AC50) under setting [2] was greater than 5000 nM.

Regarding `CC(C)(O)c1nc(Br)c(C(=O)N2CCc3[nH]cnc3C2c2ccc3ccccc3n2)o1` (stereo in doubt) [Example 97, (R)-(4-bromo-2-(2-hydroxypropan-2-yl)oxazol-5-yl)(4-(quinolin-2-yl)-6,7-dihydro-1H-imidazo[4,5-c]pyridin-5(4H)-yl)methanone], under setting [1], the AC50 is less than 500 nM. Turning to `COCc1ncc(C(=O)N2CCc3[nH]cnc3[C@H]2c2cc3ccccc3cn2)s1` [Example 393, (R)-(4-(isoquinolin-3-yl)-6,7-dihydro-1H-imidazo[4,5-c]pyridin-5(4H)-yl)(2-(methoxymethyl)thiazol-5-yl)methanone], under setting [1], the AC50 lay in the range of 500 to 1000 nM.

With `O=C(c1nnc(-c2ncccc2F)o1)N1CCc2[nH]cnc2[C@H]1c1cc2ccccc2cn1` [Example 437, (R)-(5-(3-fluoropyridin-2-yl)-1,3,4-oxadiazol-2-yl)(4-(isoquinolin-3-yl)-6,7-dihydro-1H-imidazo[4,5-c]pyridin-5(4H)-yl)methanone], the half-maximal activity concentration (AC50) under setting [1] is less than 500 nM. With `O=C(c1cnco1)N1CCc2[nH]cnc2C1c1ccc2ccccc2n1` (stereo not shown), the AC50 under setting [2] was greater than 5000 nM. With `O=C(c1ccnn1C(F)F)N1CCc2[nH]cnc2C1c1ncc2ccccc2n1` (stereo not shown), under setting [3], the AC50 entry was “E, E”. For `Cc1ncoc1C(=O)N1CCc2[nH]cnc2[C@H]1c1cc2ccccc2nn1` [Example 211, (S)-(4-(cinnolin-3-yl)-6,7-dihydro-1H-imidazo[4,5-c]pyridin-5(4H)-yl)(4-methyloxazol-5-yl)methanone], the half-maximal activity concentration (AC50) under setting [1] is less than 500 nM. The same measure, in the same setting: as for `O=C(c1cnn2cc(N3CCCC3)ccc12)N1CCc2[nH]cnc2[C@H]1c1cc2ccccc2cn1` [Example 489, (R)-(4-(isoquinolin-3-yl)-6,7-dihydro-1H-imidazo[4,5-c]pyridin-5(4H)-yl)(6-(pyrrolidin-1-yl)pyrazolo[1,5-a]pyridin-3-yl)methanone], the figure is less than 500 nM. Regarding `CC(C)(C)c1nnc(C(=O)N2CCc3[nH]cnc3C2c2cc3ccccc3nn2)o1` (stereo not shown), the AC50 under setting [2] is 1000 to 5000 nM. Same read-out and setting: for `O=C(Cc1coc(C(F)F)n1)N1CCc2nc[nH]c2C1c1cn2ccccc2n1` (stereo not shown) the value was 1000 to 5000 nM. `CN(C)Cc1nnc(C(=O)N2CCc3[nH]cnc3C2c2ccc3ccccc3n2)o1` (stereo not shown): the AC50 under setting [2] lay within 1000 to 5000 nM. With `COCc1ccc2c(C(=O)N3CCc4[nH]cnc4[C@H]3c3ncc4ccccc4n3)cnn2c1` [Example 153], the half-maximal activity concentration (AC50) under setting [1] is 500 to 1000 nM.
